Reference: patent publication US4680304A, “Feed compositions containing 2-(α-pyridyl)-Δ^2 -heterocyclic compounds” (SmithKline Beckman Corporation, priority 1985, dated 1987)
Values joined by “and” are separate entries in the source; they are usually repeats but may differ in a detail not shown here. Equal values may be shown once.

Assays:
[1] = test system: fermentation in the digestive tract (swine ileal/cecal inoculum); assay: In vitro swine procedure (fistula test; incubation of filtered ileal/cecal inoculum); parameters: species or system swine (Yorkshire barrow); conditions: 5 hours at 37°
Chick growth study = assay type: in vivo, broiler chicks
Experimental: 512 day old broiler chicks, selected for weight, health and sex, are housed in an environmentally controlled room with temperature at 37.7° and humidity at 40%. Chicks are fed ad libitum. Water is offered ad libitum. A corn or, preferably rye, basal ration is fed during the acclimation period (days 1 and 2). It is, then, mixed with the compound under test or used as a control on days 3-17. Either 8 or 16 chicks are used for each test or control group.

Compound: CC1(O)CC(C(N)=O)N=C1c1ncccc1O (stereo not shown) [3,4-dihydro-4-hydroxy-5-(3-hydroxy-2-pyridinyl)-4-methyl-2H-pyrrole-2-carboxamide]
- LYS (lysine) ([1]; 1.67 ppm): 75 % of control values
- LYS (lysine) ([1]; 16.67 ppm): 82 % of control values
- VFA (total of volatile fatty acids) ([1]; 16.67 ppm): 103 % of control values
- LYS (lysine) ([1]; entry (a), 166.7 ppm): 136 % of control values
- VFA (total of volatile fatty acids) ([1]; entry (a), 166.7 ppm): 26 % of control values
- LYS (lysine) ([1]; entry (b), 166.7 ppm): 142 % of control values
- VFA (total of volatile fatty acids) ([1]; entry (b), 166.7 ppm): 43 % of control values
- Feed/Gain (3-17 day) (Chick growth study; 4.5 ppm in feed): 98.4 % of Control
- Weight (17 day) (Chick growth study; 4.5 ppm in feed): 101.0 % of Control
- Feed/Gain (3-17 day) (Chick growth study; 25 ppm in feed): 92.6 % of Control and 99.9 % of Control
- Weight (17 day) (Chick growth study; 25 ppm in feed): 109.4 % of Control and 108.5 % of Control

Compound: c1ccc(C2=NCCN2)nc1 [2-(2-Pyridyl)-imidazoline]
- Feed/Gain (3-17 day) (Chick growth study; 50 ppm in feed): 93.0 % of Control
- Weight (17 day) (Chick growth study; 50 ppm in feed): 106.2 % of Control

Compound: NC(=NO)c1ccccn1 [2-Amidoximopyridine]
- LAC (L-lactic acid) ([1]; 166.67 ppm): 111 % of control values
- LYS (lysine) ([1]; 166.67 ppm): 99 % of control values
- VFA (total of volatile fatty acids) ([1]; 166.67 ppm): 98 % of control values
- Feed/Gain (3-17 day) (Chick growth study; 10 ppm in feed): 97.0 % of Control and 101.2 % of Control
- Weight (17 day) (Chick growth study; 10 ppm in feed): 108.5 % of Control and 99.2 % of Control
- Feed/Gain (3-17 day) (Chick growth study; 50 ppm in feed): 97.3 % of Control
- Weight (17 day) (Chick growth study; 50 ppm in feed): 103.0 % of Control

Compound: CC1(C)NN=C(c2ccccn2)N1 [5,5-Dimethyl-3-(2'-pyridyl)-4,5-dihydro-1H-triazole]
- GLU (glucose) ([1]; 166.67 ppm): 105 % of control values
- Feed/Gain (3-17 day) (Chick growth study; 9 ppm in feed): 97.2 % of Control
- Weight (17 day) (Chick growth study; 9 ppm in feed): 103.5 % of Control
- Feed/Gain (3-17 day) (Chick growth study; 50 ppm in feed): 103.1 % of Control
- Weight (17 day) (Chick growth study; 50 ppm in feed): 97.7 % of Control

Compound: COC(=O)C1(C)NN=C(c2ccccn2)N1 (stereo not shown) [Methyl 5-methyl-3-(2'-pyridyl)-4,5-dihydro-1H-triazole-5-carboxylate]
- Feed/Gain (3-17 day) (Chick growth study; 50 ppm in feed): 91.0 % of Control
- Weight (17 day) (Chick growth study; 50 ppm in feed): 108.1 % of Control

Compound: Virginiamycin [reference compound]
- GLU (glucose) ([1]; 1.67 ppm): 131 % of control values
- LYS (lysine) ([1]; 1.67 ppm): 134 % of control values
- VFA (total of volatile fatty acids) ([1]; 1.67 ppm): 147 % of control values
- GLU (glucose) ([1]; 16.67 ppm): 153 % of control values
- LYS (lysine) ([1]; 16.67 ppm): 212 % of control values
- VFA (total of volatile fatty acids) ([1]; 16.67 ppm): 85 % of control values
- GLU (glucose) ([1]; 166.67 ppm): 153 % of control values
- LYS (lysine) ([1]; 166.67 ppm): 289 % of control values
- VFA (total of volatile fatty acids) ([1]; 166.67 ppm): 39 % of control values
- Feed/Gain (3-17 day) (Chick growth study; 10 ppm in feed (rye)): 96.5 % of Control
- Weight (17 day) (Chick growth study; 10 ppm in feed (rye)): 107.1 % of Control
- Feed/Gain (3-17 day) (Chick growth study; 10 ppm in feed): 100.4 % of Control
- Weight (17 day) (Chick growth study; 10 ppm in feed): 97.7 % of Control
- Feed/Gain (3-17 day) (Chick growth study; 50 ppm in feed): 88.5 % of Control
- Weight (17 day) (Chick growth study; 50 ppm in feed): 127.8 % of Control

Compound: Cc1nc(-c2ccccn2)no1
- GLU (glucose) ([1]; 166.67 ppm): 113 % of control values
- LYS (lysine) ([1]; 166.67 ppm): 110 % of control values
- Feed/Gain (3-17 day) (Chick growth study; 8.5 ppm in feed): 99.2 % of Control
- Weight (17 day) (Chick growth study; 8.5 ppm in feed): 102.3 % of Control
